The values below come from patent publication EP0986381B1, “USE OF DITERPENES LIKE HYPOESTOXIDES FOR THE MANUFACTURE OF A MEDICAMENT FOR IMMUNOSUPPRESSION, ANTICANCER AND ANTIVIRAL TREATMENT” (Immune Modulation, Inc., priority 1997, dated 1998).

The test system of series [1] is human PBMCs. In words: Toxicity on human PBMC, trypan blue dye exclusion. To be noted: 1.25, 2.5 and 5 µg/mL; 2, 5 and 7 days. In kind it is cell-based. How it is done: In order to determine if JO-4 was toxic on human cells in vitro, human PBMCs were cultured in the absence or presence of varying concentrations of JO-4 (1.25, 2.5, and 5 µg/mL) for different days (2, 5 and 7 days). At the end of each incubation period, viability of cells was determined by trypan blue dye exclusion method.

Series [2] deals with mouse malignant melanoma cells (B16-F1). In words: Colorimetric MTT cytotoxicity assay, B16-F1. In kind it is cell-based. To be noted: B16-F1, 72 hours, read-out: IC50 concentration (cytotoxicity). The protocol:
(§1) The following materials and methods were employed in the non-limiting Examples set out below. Tumor cells: Human cervical epitheloid carcinoma (HeLa), human renal clear cell carcinoma (CAKI-1), human malignant melanoma (RPMI-7951) and mouse malignant melanoma (B16-F1) were procured from ATCC (Rockville, MD) and maintained in vitro with MEM medium (Mediatech, Inc., Herndon, VA) supplemented with 10% heat-inactivated fetal bovine serum (American Qualex, San Clemente, CA), 10mM glutamine, 100 U/ml penicillin, and 100 µg/ml streptomycin (Sigma Chemicals, Saint Louis, MO) (complete medium). […] Cell viability was assessed by trypan blue dye exclusion test and the cell number was adjusted to required concentration. Colorimetric MTT assay: Cytotoxic effects of the hypoestoxide compounds of formulas I and II (JO-4A) were determined in vitro by a colorimetric assay (Mosmann, T., J. Immunol. Methods, 65: 55-63, 1983). […] Mixing with a multichannel pipetter dissolved the dark blue crystals and the absorbance was measured at 545-650 nm using an ELISA plate reader. […] The tumors were measured with a microcaliper, and the tumor volume was calculated by the formula: Length x width x height x 0.5236 (Jungwirth, A. et al., Proc. Natl. Acad. Sci. USA, 94:5810-5813, 1997). […]
In general terms: Tetrazolium assays rely on reduction of a dye to a coloured formazan, in cell work by metabolically active cells.

In series [3] the test system is human malignant melanoma (RPMI-7951). Briefly: Colorimetric MTT cytotoxicity assay, RPMI-7951. The note with it: RPMI-7951, 72 hours. It is filed as cell-based. The protocol:
as §1

The subject of series [4] is NK activity. In words: NK activity in vivo, spleen cells against YAC-1 targets, 51Cr-release. Also noted: species or system Mice.
The subject of series [5] is B16-F1 melanoma tumor. Briefly: B16-F1 melanoma tumor growth and survival in mice. The note with it: for survival of mice: day 28. It is filed as in vivo, C57BL/6 (B6) mice. How it is done: The following materials and methods were employed in the non-limiting Examples set out below. Tumor cells: Human cervical epitheloid carcinoma (HeLa), human renal clear cell carcinoma (CAKI-1), human malignant melanoma (RPMI-7951) and mouse malignant melanoma (B16-F1) were procured from ATCC (Rockville, MD) and maintained in vitro with MEM medium (Mediatech, Inc., Herndon, VA) supplemented with 10% heat-inactivated fetal bovine serum (American Qualex, San Clemente, CA), 10mM glutamine, 100 U/ml penicillin, and 100 µg/ml streptomycin (Sigma Chemicals, Saint Louis, MO) (complete medium). Normal cells: Normal human cervical ectoepithelial cells (CrEc-Ec), normal human mammary epithelial cells (HMEC) and normal human umbilical vein endothelial cells (HUVEC) were obtained from Clonetics (San Diego, CA) and cultured with the respective recommended tissue culture medium obtained from Clonetics. Peripheral Blood Mononuclear cells (PBMC): Heparinized venous blood was obtained from healthy adult volunteers and PBMC were separated by centrifugation over Ficoll-Hypaque (Pharmacia Biotech, Piscataway, NJ). The cells were washed three times with HBSS (Hanks Balanced Salt Solution) and finally resuspended in complete medium. Cell viability was assessed by trypan blue dye exclusion test and the cell number was adjusted to required concentration. Colorimetric MTT assay: Cytotoxic effects of the hypoestoxide compounds of formulas I and II (JO-4A) were determined in vitro by a colorimetric assay (Mosmann, T., J. Immunol. Methods, 65: 55-63, 1983). Briefly, 1000 cells per well (100 µl) in a 96-well flat-bottom plate were cultured either with the culture medium alone or with various concentrations of drug at 37°C, in a 5% CO2-95% air humidified incubator for 72 hours. At the end of the culture, 10 µl of 5 mg/ml sterile solution of 3-(4,5-Dimethylthiazol-2yl)-2,5-diphenyltetrazolium bromide (MTT) (Sigma Chemicals, Saint Louis, MO) in PBS was added per well and the incubation was resumed for an additional 4 hours. Acid-isopropanol (100 µl of 0.04 N HCl in isopropanol) was added to all wells and kept at room temperature for 30 minutes. Mixing with a multichannel pipetter dissolved the dark blue crystals and the absorbance was measured at 545-650 nm using an ELISA plate reader. Mice: Eight-week-old female C57BL/6 (B6) mice were purchased from Charles River Laboratories (Wilmington, MA. The measurement of tumor volume in mice: B16-F1 melanoma cells growing exponentially in vitro were harvested by 15 minutes incubation with 0.25% trypsin-EDTA solution (Irvin Scientific, Irvine, CA). The mice were given subcutaneous (s.c.) injections of 50,000 viable cells on the right side (Fidler, I. J. Cancer Research 35:218-224, 1975). Four days after injection, the mice in the experimental group were gavaged orally with various concentrations of JO-4A in 0.2 ml of water and the control group received water alone. The tumors were measured with a microcaliper, and the tumor volume was calculated by the formula: Length x width x height x 0.5236 (Jungwirth, A. et al., Proc. Natl. Acad. Sci. USA, 94:5810-5813, 1997). Statistical analysis: Students' t-test was used to calculate the level of significance.

Series [6] concerns normal human peripheral blood mononuclear cells. Briefly: Colorimetric MTT cytotoxicity assay, normal PBMC. To be noted: 72 hours. It is filed as cell-based. The protocol:
as §1

For `C=C1C(=O)C[C@H]2C[C@@H]3O[C@@]3(C)CC[C@@H]3O[C@@]3(C)C[C@@H](OC(C)=O)[C@H]1C2(C)C` [JO-4, hypoestoxide], in series [1], the toxicity to lymphocytes entry is “not toxic”.
`C=C1C(=O)CC2CC3OC3(C)CCC3OC3(C)CC(O)C1C2(C)C` (stereo not drawn) [JO-4A]: the figures for the IC50 in series [2] and in series [3] were 6.25 to 12.5 µM and 10 to 12.5 µM, respectively. Moreover, the “NK activity in vivo” value in series [4] (intravenous administration) and in series [4] (oral administration) was “inhibited” throughout. Moreover, the survival of mice in series [5] (0.1 mg/Kg orally daily day 4 to day 20) worked out at 17%; in series [5] (0.5 mg/Kg orally daily day 4 to day 20), 60%; in series [5] (1 mg/Kg orally daily day 4 to day 20) it was 67%; in series [5] (2 mg/Kg orally daily day 4 to day 20), 84%. Further, the “survival compared with non-treated group” value in series [5] (2 mg/Kg orally, treatment stopped on day 20) is “survived longer”. Moreover, the tumor volume entry in series [5] (oral, daily from day 4 post tumor implantation, all four concentrations tested, measured day 12) is “significantly reduced”. Also, in series [6], the cytotoxic effect result was “no cytotoxic effect”.
